In ChEMBL document CHEMBL4699624, “Targeting Trimeric and Tetrameric Proanthocyanidins of Cinnamomum verum Bark as Bioactives for Dental Therapies” (J Nat Prod, 2020):
The source made the active and inactive calls. The rule behind the calls is not given here.

Experiments:
Hathewaya histolytica = assay: Inhibition of Clostridium histolyticum collagenase-induced degradation of human molar dentin assessed as reduction in degradation after 24 hrs
Dentine = assay: Induction of apparent modulus of elasticity in human molar dentine after 1 hr by bending method; format: functional, tissue-based

inhibition (Hathewaya histolytica)	Structure (SMILES)	Activity (Dentine)
Active	Oc1cc(O)c2c(c1)O[C@H](c1ccc(O)c(O)c1)[C@H](O)[C@H]2c1c(O)c2c(c3c1O[C@]1(c4ccc(O)c(O)c4)Oc4cc(O)cc(O)c4[C@H]3[C@H]1O)O[C@H](c1ccc(O)c(O)c1)[C@H](O)[C@H]2c1c(O)cc(O)c2c1O[C@H](c1ccc(O)c(O)c1)[C@H](O)C2	Active
Active	Oc1cc(O)c2c(c1)O[C@@]1(c3ccc(O)c(O)c3)Oc3cc(O)c4c(c3[C@@H]2[C@H]1O)O[C@H](c1ccc(O)c(O)c1)[C@H](O)[C@H]4c1c(O)cc(O)c2c1O[C@H](c1ccc(O)c(O)c1)[C@H](O)C2	Active
Active	Oc1cc(O)c2c(c1)O[C@@]1(c3ccc(O)c(O)c3)Oc3cc(O)c4c(c3[C@@H]2[C@H]1O)O[C@H](c1ccc(O)c(O)c1)[C@H](O)[C@H]4c1c(O)cc2c(c1O)[C@@H]1c3c(cc(O)c4c3O[C@H](c3ccc(O)c(O)c3)[C@@H](O)C4)O[C@](c3ccc(O)c(O)c3)(O2)[C@@H]1O	Active
